Results from patent US8563730B2, “Pyrazole and fused pyrazole glucokinase activators” (Takeda San Diego, Inc., priority 2008, dated 2013).
Like-named read-outs stand apart in the source and are kept apart here.

Target: T1, GK (glucokinase, residues 12-465) (Homo sapiens, UniProt P35557)
T1 construct: I.D. No. 1 corresponds to residues 12-465 of glucokinase; made in house; host or cells: DH10b-T1r E. coli
T1 sequence (P35557 with tags, fused parts or gaps isoform P35557-2): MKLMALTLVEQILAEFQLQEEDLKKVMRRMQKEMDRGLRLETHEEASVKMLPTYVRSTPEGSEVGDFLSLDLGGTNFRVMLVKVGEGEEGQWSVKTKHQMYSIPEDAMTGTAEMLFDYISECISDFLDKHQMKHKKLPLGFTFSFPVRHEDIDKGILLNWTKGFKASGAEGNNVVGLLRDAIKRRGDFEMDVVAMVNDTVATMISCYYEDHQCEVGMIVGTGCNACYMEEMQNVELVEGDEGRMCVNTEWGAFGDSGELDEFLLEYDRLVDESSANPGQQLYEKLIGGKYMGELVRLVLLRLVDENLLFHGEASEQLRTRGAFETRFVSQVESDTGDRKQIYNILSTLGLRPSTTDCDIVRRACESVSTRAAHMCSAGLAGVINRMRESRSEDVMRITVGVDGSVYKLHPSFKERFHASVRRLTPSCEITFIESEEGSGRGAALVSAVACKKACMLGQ
Assay: enzymatic glucokinase activity assay (ATP consumption, KinaseGlo luminescence)
Format: biochemical
Conditions: 5 μM ATP, 5 mM Glucose, reported as bins; for EC50: Kact = concentration that displays 50% of the maximal increase in GK activity, 60 min, room temperature, read-out: pKact
Text: The activity of compounds as glucokinase activators may be assayed in vitro, in vivo or in a cell line. Provided below is an enzymatic glucokinase activity assay.
Purified glucokinase may be obtained as follows. […] SEQ.
The expression of recombinant glucokinase protein may be carried out by transformation and growth of DH10b-T1r E. coli cells incorporating the (pFLAG-CTC) plasmid in LB media. Protein expression can be induced in this system by the addition of IPTG to the culture medium.
Recombinant protein may be isolated from cellular extracts by passage over Sepharose Q Fast Flow resin (Pharmacia). This partially purified GK extract may then be further purified by a second passage over Poros HQ10 (Applied Biosystems). The purity of GK may be determined on denaturing SDS-PAGE gel. Purified GK may then be concentrated to a final concentration of 20.0 mg/ml. After flash freezing in liquid nitrogen, the proteins can be stored at −78° C. in a buffer containing 25 mM TRIS-HCl pH 7.6, 50 mM NaCl, and 0.5 mM TCEP.
The activation properties of compounds for GK may be determined using a black 384-well-plate format under the following reaction conditions: 25 mM Hepes pH 7.2, 25 mM NaCl, 10 mM MgCl2, 0.01% Brij35, 1 mM DTT, 5 μM ATP, 5 mM Glucose 2% DMSO. The amount of ATP consumed may be determined quantitatively by addition of equal volume of luciferase reagent (luciferase+beetle luciferin—KinaseGlo Luminescent Kinase Assay kit from Promega). The luminescence intensity may be measured by using the Analyst HT from LJL Biosystems.
The reaction mixture may then be incubated at room temperature for 60 min, and quenched and developed by addition of 10 μL of luciferase reagent. Luminescence intensities of the resulting reaction mixtures may be measured after a 10 min incubation at room temperature. The luminescence intensity may be measured by using the Analyst HT from LJL Biosystems.
pKact and % ACTmax values may be calculated by non-linear curve fitting of the compound concentrations and luminescence intensities to a standard inhibition/activation equation.

[1] = read-out: % ACTmax, calculated maximal gain in GK enzyme activity at a saturating concentration of the compound
[2] = calculated maximal gain in GK enzyme activity at a saturating concentration of the compound, read-out: % ACTmax

Structure (SMILES)	EC50 [µM]	Emax [1] [%]	Emax [2] [%]
O=C(NC1CC1)c1nn(C(CC2CCOCC2)C(=O)Nc2ncc(Cl)s2)cc1Cl (stereo not shown) [Compound 8, 4-chloro-1-(1-(5-chlorothiazol-2-ylamino)-1-oxo-3-(tetrahydro-2H-pyran-4-yl)propan-2-yl)-N-cyclopropyl-1H-pyrazole-3-carboxamide]	3.98 to 12.6	≤ 90	
COc1ccc2nc(NC(=O)[C@H](CC3CCOCC3)n3cc(S(=O)(=O)C4CC4)cn3)sc2n1 [Compound 26, (S)-2-(4-(cyclopropylsulfonyl)-1H-pyrazol-1-yl)-N-(5-methoxythiazolo[5,4-b]pyridin-2-yl)-3-(tetrahydro-2H-pyran-4-yl)propanamide]	≥ 15.8		≤ 90
O=C(Nc1ncc(F)s1)[C@H](CC1CCOCC1)n1ncc2c(S(=O)(=O)C3CC3)cc(F)cc21 [Compound 123, (S)-2-(4-(cyclopropylsulfonyl)-6-fluoro-1H-indazol-1-yl)-N-(5-fluorothiazol-2-yl)-3-(tetrahydro-2H-pyran-4-yl)propanamide]	≤ 0.316		≥ 111
COc1ccc2nc(NC(=O)C(CC3CCOCC3)n3ccc(S(=O)(=O)C4CC4)n3)sc2n1 (stereo not shown) [Compound 1, 2-(3-(cyclopropylsulfonyl)-1H-pyrazol-1-yl)-N-(5-methoxythiazolo[5,4-b]pyridin-2-yl)-3-(tetrahydro-2H-pyran-4-yl)propanamide]	≥ 15.8	≤ 90	
N#Cc1cccnc1NC(=O)C(CC1CCOCC1)n1ncc2c(S(=O)(=O)C3CC3)cccc21 (stereo not shown) [Compound 86, N-(3-cyanopyridin-2-yl)-2-(4-(cyclopropylsulfonyl)-1H-indazol-1-yl)-3-(tetrahydro-2H-pyran-4-yl)propanamide]	≥ 15.8		≤ 90
COc1ccc2c(cnn2C(CC2CCOCC2)C(=O)Nc2ccn(C)n2)c1S(=O)(=O)C1CC1 (racemic) [Compound 15, 2-(4-(cyclopropylsulfonyl)-5-methoxy-1H-indazol-1-yl)-N-(1-methyl-1H-pyrazol-3-yl)-3-(tetrahydro-2H-pyran-4-yl)propanamide]	0.398 to 1.26		90 to 100
O=C1CC[C@H](C[C@@H](C(=O)Nc2cnccn2)n2ncc3c(S(=O)(=O)C4CC4)cccc32)C1 [Compound 74, (S)-2-(4-(cyclopropylsulfonyl)-1H-indazol-1-yl)-3-((R)-3-oxocyclopentyl)-N-(pyrazin-2-yl)propanamide]	1.58 to 3.16		90 to 100
Cc1ccc(NC(=O)C(CC2CCOCC2)n2ncc3c(S(=O)(=O)C4CC4)cccc32)nn1 (stereo not shown) [Compound 116, 2-(4-(cyclopropylsulfonyl)-1H-indazol-1-yl)-N-(6-methylpyridazin-3-yl)-3-(tetrahydro-2H-pyran-4-yl)propanamide]	3.98 to 12.6		≤ 90
Cn1ccc(NC(=O)[C@H](CC2CCOCC2)n2ncc3c(S(=O)(=O)C4CC4)ccnc32)n1 [Compound 98, (S)-2-(4-(cyclopropylsulfonyl)-1H-pyrazolo[3,4-b]pyridin-1-yl)-N-(1-methyl-1H-pyrazol-3-yl)-3-(tetrahydro-2H-pyran-4-yl)propanamide]	0.398 to 1.26		90 to 100
COc1ccc2nc(NC(=O)C(CC3CCOCC3)n3cc(S(=O)(=O)C4CC4)cn3)sc2n1 (stereo not shown) [Compound 24, 2-(4-(cyclopropylsulfonyl)-1H-pyrazol-1-yl)-N-(5-methoxythiazolo[5,4-b]pyridin-2-yl)-3-(tetrahydro-2H-pyran-4-yl)propanamide]	≥ 15.8		≤ 90
N#Cc1cc(S(=O)(=O)C2CC2)c2cnn(C(CC3CCOCC3)C(=O)Nc3ncc(F)s3)c2c1 (stereo not shown) [Compound 120, 2-(6-cyano-4-(cyclopropylsulfonyl)-1H-indazol-1-yl)-N-(5-fluorothiazol-2-yl)-3-(tetrahydro-2H-pyran-4-yl)propanamide]	≤ 0.316		90 to 100
